pIC50: −log10 of the molar value.
Tests used:
[1] = species: Mus musculus; assay: Antagonistic activity against Scopolamine induced behavioral deficits in mice; 5/6; type: functional
[2] = species: Mus musculus; assay: animal or person
Description: Effective dose against administration in mice

[3] = target: Muscarinic acetylcholine receptor; type: cell membranes, Membrane
Description: Inhibition of [3H]quinuclidinyl benzilate (QNB) binding from rat forebrain membranes in the presence of Zn

[4] = test system: Mus musculus; assay: Antagonistic activity against Scopolamine induced behavioral deficits in mice at dose 0.63 mg/kg sc; type: functional; conditions: route subcutaneous
[5] = target: Sodium-dependent noradrenaline transporter (Homo sapiens, UniProt P23975)
Description: Inhibitory activity against norepinephrine (NE) uptake in rat whole brain synaptosome preparation

[6] = test system: Mus musculus; assay: Antagonistic activity against Scopolamine induced behavioral deficits in mice at dose […] sc; type: functional; conditions: route subcutaneous
[7] = test system: Mus musculus; assay: Antagonistic activity against Scopolamine induced behavioral deficits in mice at dose 0.16 mg/kg sc; type: functional; conditions: route subcutaneous
[8] = test system: Mus musculus; assay: Antagonistic activity against Scopolamine induced behavioral deficits in mice at dose 5.0 mg/kg sc; type: functional; conditions: route subcutaneous
[9] = target: Muscarinic acetylcholine receptor; type: cell membranes, Membrane; remark: listed apart in the source
Description: Inhibition of [3H]quinuclidinyl benzilate (QNB) binding from rat forebrain membranes in the absence of Zn

[10] = test system: Mus musculus; assay: Antagonistic activity against Scopolamine induced behavioral deficits in mice at dose 1.25 mg/kg sc; type: functional; conditions: route subcutaneous
[11] = species: Mus musculus; assay: Antagonistic activity against Scopolamine induced behavioral deficits in mice; 2/3; type: functional
[12] = test system: Mus musculus; assay: Antagonistic activity against Scopolamine induced behavioral deficits in mice at dose 1.0 mg/kg sc; type: functional; conditions: route subcutaneous
[13] = test system: Mus musculus; assay: Antagonistic activity against Scopolamine induced behavioral deficits in mice at dose 0.3 mg/kg sc; type: functional; conditions: route subcutaneous
[14] = test system: Mus musculus; assay: Antagonistic activity against Scopolamine induced behavioral deficits in mice at dose 1.25 mg/kg sc; 0/6; type: functional
[15] = target: T1, Acetylcholinesterase (Rattus norvegicus, UniProt P37136)
T1 sequence (P37136 whole entry): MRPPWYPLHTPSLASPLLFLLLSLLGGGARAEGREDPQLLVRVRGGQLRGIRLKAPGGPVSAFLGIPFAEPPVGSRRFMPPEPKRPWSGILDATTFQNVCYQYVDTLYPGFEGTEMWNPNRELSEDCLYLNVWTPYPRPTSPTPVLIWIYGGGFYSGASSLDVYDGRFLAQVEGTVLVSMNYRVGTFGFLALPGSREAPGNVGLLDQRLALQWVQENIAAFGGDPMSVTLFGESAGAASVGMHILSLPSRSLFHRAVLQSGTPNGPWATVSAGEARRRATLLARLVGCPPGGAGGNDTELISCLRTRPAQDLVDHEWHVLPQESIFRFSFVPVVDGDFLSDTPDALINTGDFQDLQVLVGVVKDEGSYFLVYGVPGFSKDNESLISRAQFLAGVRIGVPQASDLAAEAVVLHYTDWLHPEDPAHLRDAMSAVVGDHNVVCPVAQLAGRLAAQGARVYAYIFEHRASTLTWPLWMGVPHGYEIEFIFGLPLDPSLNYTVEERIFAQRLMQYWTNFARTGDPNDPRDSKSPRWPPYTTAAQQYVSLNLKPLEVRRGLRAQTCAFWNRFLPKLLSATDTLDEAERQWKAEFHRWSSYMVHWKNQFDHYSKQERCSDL
Description: Inhibitory activity against acetylcholinesterase in rat striatal preparation

[16] = test system: Mus musculus; assay: Antagonistic activity against Scopolamine induced behavioral deficits in mice at dose 5.0 mg/kg sc; 1/3; type: functional
[17] = species: Mus musculus; assay: Antagonistic activity against Scopolamine induced behavioral deficits in mice; 1/3; type: functional
[18] = species: Mus musculus; conditions: dose 5 mg/kg; route subcutaneous
[19] = species: Mus musculus; conditions: dose 0.63 mg/kg; route subcutaneous
[20] = test system: Mus musculus; assay: Antagonistic activity against Scopolamine induced behavioral deficits in mice at dose 5.0 mg/kg sc; 2/6; type: functional
[21] = species: Mus musculus; conditions: dose 2.5 mg/kg; route subcutaneous
Description: Antagonistic activity against Scopolamine induced behavioral deficits in mice at dose 2.5 mg/kg sc

[22] = test system: Mus musculus; assay: Antagonistic activity against Scopolamine induced behavioral deficits in mice at dose 20 mg/kg sc; type: functional; conditions: route subcutaneous
[23] = species: Mus musculus; assay: Antagonistic activity against Scopolamine induced behavioral deficits in mice; 3/9; type: functional
[24] = test system: Mus musculus; assay: Antagonistic activity against Scopolamine induced behavioral deficits in mice at dose 10 mg/kg sc; type: functional; conditions: route subcutaneous
[25] = target: T2, Adrenergic receptor alpha-2 (Rattus norvegicus, UniProt P22086+P19328+P22909); assay: Inhibitory activity against [3H]clonidine binding to Alpha-2 adrenergic receptor in rat cortex
T2 sequence (P22086 whole entry): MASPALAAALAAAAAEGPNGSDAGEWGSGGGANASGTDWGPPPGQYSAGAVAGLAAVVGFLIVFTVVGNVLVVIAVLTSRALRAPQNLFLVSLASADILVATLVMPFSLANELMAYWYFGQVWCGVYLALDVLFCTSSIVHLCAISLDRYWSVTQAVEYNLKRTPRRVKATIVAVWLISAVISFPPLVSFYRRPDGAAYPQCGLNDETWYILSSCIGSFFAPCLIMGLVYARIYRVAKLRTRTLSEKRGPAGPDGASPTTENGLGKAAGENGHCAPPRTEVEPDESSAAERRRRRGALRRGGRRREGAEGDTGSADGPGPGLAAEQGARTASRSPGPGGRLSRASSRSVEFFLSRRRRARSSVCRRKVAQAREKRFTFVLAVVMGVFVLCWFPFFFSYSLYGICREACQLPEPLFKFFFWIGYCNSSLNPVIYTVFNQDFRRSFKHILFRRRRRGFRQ
T2 sequence (P19328 whole entry): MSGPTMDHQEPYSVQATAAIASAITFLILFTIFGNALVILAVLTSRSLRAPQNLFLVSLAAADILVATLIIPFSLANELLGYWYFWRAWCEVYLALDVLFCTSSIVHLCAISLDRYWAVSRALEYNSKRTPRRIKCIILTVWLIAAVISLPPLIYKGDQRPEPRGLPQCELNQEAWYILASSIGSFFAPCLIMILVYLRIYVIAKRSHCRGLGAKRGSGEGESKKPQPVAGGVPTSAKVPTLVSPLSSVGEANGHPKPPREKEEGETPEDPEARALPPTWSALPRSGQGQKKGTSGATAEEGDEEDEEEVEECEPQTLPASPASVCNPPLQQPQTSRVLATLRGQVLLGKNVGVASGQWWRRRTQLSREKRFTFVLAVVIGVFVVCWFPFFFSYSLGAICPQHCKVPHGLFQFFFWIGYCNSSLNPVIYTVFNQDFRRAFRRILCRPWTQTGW
T2 sequence (P22909 whole entry): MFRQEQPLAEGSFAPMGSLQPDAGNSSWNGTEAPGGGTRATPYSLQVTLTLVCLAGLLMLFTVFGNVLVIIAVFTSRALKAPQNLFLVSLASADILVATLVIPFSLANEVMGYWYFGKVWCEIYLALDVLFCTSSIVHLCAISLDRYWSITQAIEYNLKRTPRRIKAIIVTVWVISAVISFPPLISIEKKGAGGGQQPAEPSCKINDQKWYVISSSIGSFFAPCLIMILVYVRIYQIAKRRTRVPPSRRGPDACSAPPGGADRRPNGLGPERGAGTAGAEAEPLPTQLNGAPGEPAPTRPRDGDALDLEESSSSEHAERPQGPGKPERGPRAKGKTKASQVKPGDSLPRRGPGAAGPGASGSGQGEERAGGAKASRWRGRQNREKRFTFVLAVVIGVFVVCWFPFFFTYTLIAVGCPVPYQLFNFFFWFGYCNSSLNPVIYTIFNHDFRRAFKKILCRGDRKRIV

[26] = species: Mus musculus; assay: Antagonistic activity against Scopolamine induced behavioral deficits in mice; 0/3; type: functional

Sequence of Sodium-dependent noradrenaline transporter (P23975 whole entry): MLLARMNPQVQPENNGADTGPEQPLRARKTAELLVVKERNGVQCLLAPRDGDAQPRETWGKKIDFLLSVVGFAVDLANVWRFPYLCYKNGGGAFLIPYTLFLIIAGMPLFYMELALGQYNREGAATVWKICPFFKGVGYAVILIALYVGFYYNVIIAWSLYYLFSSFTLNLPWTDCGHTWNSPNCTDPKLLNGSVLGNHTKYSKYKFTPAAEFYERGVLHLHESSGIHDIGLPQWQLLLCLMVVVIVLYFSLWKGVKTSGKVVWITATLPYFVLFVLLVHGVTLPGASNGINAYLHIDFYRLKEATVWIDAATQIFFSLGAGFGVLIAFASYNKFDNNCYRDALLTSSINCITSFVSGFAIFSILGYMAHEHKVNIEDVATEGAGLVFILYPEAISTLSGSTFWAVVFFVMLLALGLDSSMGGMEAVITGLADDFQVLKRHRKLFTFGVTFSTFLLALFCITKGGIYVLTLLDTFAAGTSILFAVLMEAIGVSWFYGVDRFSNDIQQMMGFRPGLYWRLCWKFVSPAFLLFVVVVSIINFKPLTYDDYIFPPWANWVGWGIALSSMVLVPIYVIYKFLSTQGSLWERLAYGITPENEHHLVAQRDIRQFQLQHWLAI

Structure (SMILES) | ED50 [2] | IC50 [3] | pIC50 [5] | IC50 [9] | pIC50 [15] | also measured
CCCN(c1ccncc1)n1cc(C#N)c2ccccc21 | 9.2 mg/kg | 3.5 µM | 6.12 | 8.6 µM |  | Antagonism [1]: 5; Response [4]: 36%; Response [6]: 53%; Response [7]: 40%; Response [8]: 27%; Response [10]: 29%
c1ccc2c(c1)ccn2Cc1ccncc1 |  | 84 µM | < 4.70 | 223 µM |  | Antagonism [11]: 2; Response [12]: 20%; Response [13]: 33%
CCCN(c1ccncc1)n1ncc2ccccc21.O=C(O)/C=C/C(=O)O | 11 mg/kg | 4 µM | 5.85 | 13 µM | < 4.00 | Antagonism [14]: 0
CCCC(c1ccncc1)n1ccc2ccccc21 (stereo not given) |  | 29 µM | 6.17 | 142 µM |  | Antagonism [16]: 1; Response [13]: 20%
CN(c1ccncc1)n1ccc2cc(Br)ccc21 | > 20 mg/kg | 2.5 µM | 4.89 | 4.6 µM | < 4.00 | Response [12]: 44%; Antagonism [17]: 1
CCCN(c1ccncc1)n1ccc2cc(Br)ccc21 | > 20 mg/kg | 1.6 µM | 5.59 | 4.4 µM | < 4.00 | Response [18]: 33%; Response [19]: 33%; Antagonism [20]: 2
C#CCN(c1ccncc1)n1ccc2ccccc21 | 3.9 mg/kg | 2.5 µM | 6.17 | 11 µM | < 4.00 | Response [21]: 21%; Response [22]: 27%; Antagonism [23]: 3; Response [24]: 21%; IC50 [25]: 0.5 µM
Clc1ccc2c(ccn2Nc2ccncc2)c1 | > 20 mg/kg | 5.9 µM | < 4.70 | 42 µM | < 4.00 | Antagonism [26]: 0
c1ccc2c(c1)OCC(C1=NCCN1)O2 (stereo not given) [IDAZOXAN] |  |  | < 4.70 |  |  | Response [21]: 53%; Antagonism [1]: 5; Response [6]: 60%; Response [18]: 33%; Response [19]: 43%; Response [10]: 47%
